# Assay results as given in paper PMC6021111, “Murine leukemia virus p12 tethers the capsid-containing pre-integration complex to chromatin by binding directly to host nucleosomes in mitosis” (PLoS Pathogens, 2018).
# Legend:
# nucleosomes = settings: cited from earlier work
# Excerpt: To identify whether p12 binds to the same nucleosomal docking site as the CBS from PFV Gag, we then tested the ability of p12 CTD peptides to block the binding of nucleosomal arrays to hCBS and vice versa (Fig 9E and 9F).
# [1] = system: nucleosome binding to immobilised biotinylated hCBS; test: BLI competition, nucleosome binding to immobilised hCBS; settings: soluble peptide 100 μM; three technical replicates
# Description: A negative control was included that contained an R66A change in the Mo-MLV p12_M63I CTD peptide. […] The biotinylated peptides were loaded onto streptavidin biosensors (Pall ForteBio Corp) at 0.5 μg/ml for 120 s in 10 mM HEPES pH 7.5, 150 mM NaCl, 0.005% (v/v) Tween 20. […] Experiments were performed at 25°C and sample plates were agitated at 1000 rpm. […] For competition assays, soluble non-biotin tagged peptides were added to the nucleosomal arrays at 100 μM to inhibit nucleosome binding prior to recording BLI measurements with biotinylated peptide immobilised on sensor probes.
# [2] = system: H2B precipitation with GST-p12_M63I, 293T cells; test: Kinase inhibition, H2B pull-down with GST-p12_M63I; assay type: cell-based; settings: 3.5 h with nocodazole and 10 μM MG132; roscovitine 75 μM, kenpaullone 40 μM; immunoblot
# Description: (§1) Glycogen synthase kinase 3 (GSK3) and cyclin-dependent kinase 5 (CDK5) were predicted to phosphorylate Mo-MLV p12 on S61, by the NetPhos 3.1 kinase prediction algorithm. […] These drugs were tested in our biochemical assays for their ability to reduce GST-p12_M63I phosphorylation and chromatin association. In our assays, cells transiently-expressing GST-p12_M63I were cultured in media containing nocodazole overnight, prior to the addition of the kinase inhibitors. […] After removal of the drugs, cells were immediately washed and lysed for glutathione-sepharose bead pull-down assays. The eluates from the beads were analysed by SDS-PAGE followed by sequential staining with PQ and SR dyes to quantify the phosphorylation levels of GST-p12_M63I. LiCl treatment had little effect on GST-p12_M63I phosphorylation (Fig 7A, lane 2). […] To correlate GST-p12_M63I phosphorylation with its ability to interact with chromatin, we quantified the amounts of H2B in the pull-down eluates by immunoblotting. […] The short period of kinase inhibition used in our assays, may have limited the effects observed on GST-p12_M63I phosphorylation.
# (§2) GST-p12 proteins were expressed in 293T cells from pCAGGS/GST-derived plasmids by transient transfection using Turbofect (Thermo Fisher Scientific). Approximately 24 h after transfection, cells were changed into fresh media containing either 400 ng/ml nocodazole (Sigma) or 2 μg/ml aphidicolin (Sigma) and incubated overnight at 37°C. The synchronisation of the cell cultures after drug treatment was assessed by propidium iodide staining and cell cycle phase analysis by flow cytometry. Cells to be used in pull down assays were washed and lysed in 20 mM Tris pH 8.0, 300 mM NaCl, 1 mM EDTA, 10% Glycerol, 1% Triton X-100, protease inhibitors (Roche), phosphatase inhibitors (Merck). Lysis was facilitated by passing the lysates through a 19-gauge needle x7 and sonication, x7 pulses, 30 s ON and 30 s OFF, in an ice bath (Decon FS100). […] ProQ diamond and Sypro ruby staining (Thermo Fisher Scientific) of gels was visualised and quantified on a ChemiDoc imaging system (Bio-Rad). […]
# [3] = system: GST-p12_M63I phosphorylation in 293T cells; test: Kinase inhibition, GST-p12_M63I phosphorylation (PQ/SR); assay type: cell-based; settings: 3.5 h with nocodazole and 10 μM MG132, LiCl 40 mM, roscovitine 75 μM, kenpaullone 40 μM
# Description: as §1, §2
# [4] = system: cyclin-dependent kinase 5 (CDK5); design: method as in PMID 12534346; settings: cited from earlier work
# [5] = system: Glycogen synthase kinase 3 (GSK3); settings: cited from earlier work
# [6] = target: T1, recombinant H3.3 poly-nucleosomes (Homo sapiens, UniProt P62807+P84243+Q93077); test: Biolayer interferometry, peptide binding to poly-nucleosomes; settings: BLI; biotinylated peptide on streptavidin sensor; HEPES pH 7.5, 150 mM NaCl, 25°C
# T1 construct: purchased Active Motif
# Excerpt: To identify whether p12 proteins also interact directly with nucleosomes, we used biolayer interferometry (BLI) to probe the binding of recombinant poly-nucleosomal arrays by p12 CTD peptides (Fig 9). Streptavidin sensor probes coated with biotinylated peptide ligands were immersed in ‘analyte’ solutions containing the in vitro assembled nucleosomal arrays to observe any potential interactions. The p12 CTD peptide sequences used are highlighted in bold in Fig 5C. A peptide carrying the PFV hCBS sequence was included in the assays as a positive control.
# The binding of PFV hCBS and p12 CTD peptides to recombinant H3.3 poly-nucleosomes (Active Motif) was measured using biolayer interferometry on an Octet RED system (Pall ForteBio Corp). The peptides were synthesised with a N-terminal biotin tag and GGGG linker. The Mo-MLV, FeLV and GaLV p12 CTD peptide sequences used are highlighted in bold in Fig 5C. A negative control was included that contained an R66A change in the Mo-MLV p12_M63I CTD peptide. Mo-MLV phos p12_M63I CTD was also synthesised with a phosphorylated S61 residue. […] Equilibrium binding amplitudes were determined by exponential least squares curve fitting of the association phase. […] Equilibrium binding constant (Kd) and maximum specific binding (Bmax) were calculated by fitting the data to a non-linear regression model. […]
compound,measurement,setting,value
"NQGGYNAAPRTYQP [hCBS_L539A/R540A, hCBS peptide with L539A/R540A mutations, reference compound]",binding of hCBS peptides to nucleosomes,nucleosomes,prevent binding of hCBS peptides to nucleosomes
same,decrease of equilibrium binding of nucleosomes to immobilised hCBS,[1],not hCBS_L539A/R540A or p12_R66A peptides
O=C1Cc2c([nH]c3ccc(Br)cc23)-c2ccccc2N1 [kenpaullone],reduction of H2B precipitation by kinase inhibitor,[2],~ 3.5 fold
same,reduction of GST-p12_M63I phosphorylation by kinase inhibitor,[3],~ 3 fold
same,inhibition of CDK5,[4],inhibits both enzymes
same,inhibition of GSK3,[5],inhibits both enzymes
CC[C@H](C)[C@H](NC(=O)[C@@H]1CCCN1C(=O)[C@H](COP(=O)(O)O)NC(=O)[C@@H]1CCCN1C(=O)[C@H](CC(=O)O)NC(=O)CNC(=O)CNC(=O)CNC(=O)CNC(=O)CCCC[C@@H]1SC[C@@H]2NC(=O)N[C@@H]21)C(=O)N[C@@H](C)C(=O)N[C@@H](CO)C(=O)N[C@@H](CCCNC(=N)N)C(=O)N[C@@H](CC(C)C)C(=O)N[C@@H](CCCNC(=N)N)C(=O)NCC(=O)N[C@@H](CCCNC(=N)N)C(=O)N[C@@H](CCCNC(=N)N)C(=O)N[C@@H](CCC(=O)O)C(=O)N1CCC[C@H]1C(=O)N1CCC[C@H]1C(=O)N[C@H](C(=O)O)C(C)C [phosphorylated p12_M63I],binding to nucleosomal arrays,[6],clear binding to nucleosomes
CC[C@H](C)[C@H](NC(=O)[C@@H]1CCCN1C(=O)[C@H](CO)NC(=O)[C@@H]1CCCN1C(=O)[C@H](CC(=O)O)NC(=O)CNC(=O)CNC(=O)CNC(=O)CNC(=O)CCCC[C@@H]1SC[C@@H]2NC(=O)N[C@@H]21)C(=O)N[C@@H](C)C(=O)N[C@@H](CO)C(=O)N[C@@H](CCCNC(=N)N)C(=O)N[C@@H](CC(C)C)C(=O)N[C@@H](CCCNC(=N)N)C(=O)NCC(=O)N[C@@H](CCCNC(=N)N)C(=O)N[C@@H](CCCNC(=N)N)C(=O)N[C@@H](CCC(=O)O)C(=O)N1CCC[C@H]1C(=O)N1CCC[C@H]1C(=O)N[C@H](C(=O)O)C(C)C [non-phosphorylated p12_M63I],binding to nucleosomal arrays,[6],clear binding to nucleosomes
"DPSPMASALRGRREPPY [p12_R66A, soluble Mo-MLV p12 CTD peptide with R66A]",decrease of equilibrium binding of nucleosomes to immobilised hCBS,[1],not hCBS_L539A/R540A or p12_R66A peptides
